In the supplement of paper PMC7285287:
Structures can show the parent of a compound that is named as a salt. ± gives the standard deviation of the averaged measurements.

System: Candida albicans SNY425 biofilm
Assay: biofilm OD600 relative to DMSO control (fraction of DMSO control); higher = more biofilm (less inhibition)
Method: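 C. albicans SNY425 biofilm optical density assays (OD600 of the adhered biofilm after media removal) in RPMI-MOPS pH 7.0 at 37 °C with shaking. Groups of 4 to 8 wells per compound are averaged and normalised to the average of DMSO loading control wells. Adherence inhibition was tested at 10 and 40 µM, sustained inhibition and disruption at 40 µM, and the MBIC series at 200 to 0.78 µM.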

[1] = 0.78 µM, assay detail: sustained inhibition (MBIC series), 384-well, compound during adherence and 24 h growth
[2] = 3.125 µM, assay detail: sustained inhibition (MBIC series), 384-well, compound during adherence and 24 h growth
[3] = 10 µM, assay detail: adherence inhibition, 96-well, compound during 90 min adherence only
[4] = 12.5 µM, assay detail: sustained inhibition (MBIC series), 384-well, compound during adherence and 24 h growth
[5] = 40 µM, assay detail: adherence inhibition, 96-well, compound during 90 min adherence only
[6] = 40 µM, assay detail: disruption, 384-well, compound added to 24 h mature biofilm for further 24 h
[7] = 40 µM, assay detail: sustained inhibition, 384-well, compound during adherence and 24 h growth
[8] = 50 µM, assay detail: sustained inhibition (MBIC series), 384-well, compound during adherence and 24 h growth
[9] = 200 µM, assay detail: sustained inhibition (MBIC series), 384-well, compound during adherence and 24 h growth

| Structure (SMILES) | biofilm OD600 [1] | biofilm OD600 [2] | biofilm OD600 [3] | biofilm OD600 [4] | biofilm OD600 [5] | biofilm OD600 [6] | biofilm OD600 [7] | biofilm OD600 [8] | biofilm OD600 [9] |
| --- | --- | --- | --- | --- | --- | --- | --- | --- | --- |
| O=C([O-])C(O)[C@H](O)[C@@H](O)[C@H](O)[C@H](O)CO.O=C([O-])C(O)[C@H](O)[C@@H](O)[C@H](O)[C@H](O)CO.[Ca+2] (some centres not stated) [calcium gluceptate] | 0.996 | 1.09 | 0.997 | 1.02 | 0.955 | 0.941 ± 0.037 | 0.955 ± 0.022 | 1.02 | 0.823 |
| O=c1[nH]c(=O)n([C@H]2C[C@H](O)[C@@H](CO)O2)cc1F [floxuridine] | – | – | 1.02 | – | 0.967 | 0.969 ± 0.017 | 0.927 ± 0.025 | – | – |
| NC(=O)C(c1ccccc1)(c1ccccc1)[C@@H]1CCN(CCc2ccc3c(c2)CCO3)C1 [darifenacin hydrobromide] | – | – | 1.04 | – | 0.916 | 1 ± 0.018 | 1.05 ± 0.046 | – | – |
| Clc1ccc(C(Cn2ccnc2)OCc2ccsc2Cl)c(Cl)c1 (configuration not stated) [tioconazole] | 0.768 | 0.714 | 0.341 | 0.675 | 0.284 | 0.8317 ± 0.0059 | 0.473 ± 0.032 | 0.491 | 0.312 |
| Nc1nc(=O)[nH]cc1F [flucytosine] | 0.866 | 0.873 | 0.907 | 0.862 | 0.776 | 0.983 ± 0.06 | 0.798 ± 0.066 | 0.758 | 0.719 |
| Fc1ccc([C@@H]2CCNC[C@H]2COc2ccc3c(c2)OCO3)cc1 [paroxetine hydrochloride] | 1.02 | 1.05 | 0.932 | 0.95 | 0.926 | 0.9497 ± 0.0011 | 0.509 ± 0.05 | 0.62 | 0.565 |
| Oc1ncnc2[nH]ncc12 [Allopurinol] | – | – | 0.938 | – | 0.887 | 1.02 ± 0.07 | 0.982 ± 0.038 | – | – |
| O=C(O)c1cccnc1 [niacin] | – | – | 0.913 | – | 0.91 | 1.016 ± 0.002 | 0.967 ± 0.024 | – | – |
